From the NIST ThermoML archive (doi:10.1016/j.jct.2018.05.027)

Experiment: xn = mol fraction of the nth substance listed
Settings: Liquid, Vibrating wire viscometry, x1 = 1

CCC(C)O (stereo not given) [butan-2-ol] + Cc1ccc(C)c(C)c1
viscosity [mPa·s]
Settings	293.15 K	298.15 K	313.15 K	333.15 K	353.15 K
100 kPa	3.767	3.102	1.839	1.007	0.6198
1000 kPa	3.813	3.123	1.862	1.023	0.6273
5000 kPa	3.978	3.28	1.947	1.078	0.6577
10000 kPa	4.235	3.462	2.041	1.133	0.6999
20000 kPa	4.696	3.873	2.262	1.254	0.7717
30000 kPa	5.159	4.253	2.503	1.372	0.8354
40000 kPa	5.693	4.697	2.734	1.491	0.9088
50000 kPa	6.274	5.142	2.99	1.624	0.9898
60000 kPa	6.831	5.553	3.237	1.759	1.07
70000 kPa	7.377	6.044	3.558	1.905	1.151
80000 kPa	8.056	6.544	3.841	2.081	1.242
100000 kPa	9.598	7.646	4.456	2.427	1.444
120000 kPa	11.31	9.053	5.179	2.716	1.644
140000 kPa	13.38	10.43	5.933	3.099	1.845
